# Laboratory results from patent US10208028B1, “Methods of treating cancer” (Macau University of Science and Technology, priority 2017, dated 2019).
# Assays:
# [1] = test system: A549 cells; assay: MTT assay cell viability; type: cell-based; conditions: Homo sapiens, 72 hr treatment
# Experimental: (§1) A549 and H358 cell lines were stored in liquid nitrogen. A549 and H358 cells were cultured by RPMI 1640 medium after recovery. RPMI 1640 medium supplemented with 10% fetal bovine serum and 100 units/mL penicillin and 100 μg/mL streptomycin. A549 and H358 cells were grown at 37° C. incubator with 5% CO2.
# (§2) All compounds were dissolved in dimethyl sulfoxide (DMSO) and stored at −40° C. HCC78 cells were plated in 96-well micro-plate and plated 3000 cells/well. Then the 96-well micro-plate was put back in the incubator and overnight for cell adhesion. After cell adhesion, the medium was removed and each well was added with 100 μl drug-containing medium. There were three different concentrations for each drug and three duplicate wells for each concentration. Then cell adhesion was cultured overnight for 72 hr. After 72 hr, each well was added with 10 μl of MTT solution and the 96-well plate was put back in the incubator for 4 hr. Then 100 μl of the SDS solution (10% SDS and 0.1 mM HCL) was added to each well and incubated at 37° C. for 4 hr. Finally the absorbance of the plate was measured by an absorbance reader (Tecan, Morrisvill, N.C., USA).
# (§3) FIG. 3B is a graph 302 showing the effect of compound C620-0696 on the cell viability of A549 cells. A549 cells were treated by different concentrations of compound C620-0696, i.e. 3, 6, 9 and 12 μM for 72 hr. […]
# [2] = test system: H358 cells; assay: MTT assay cell viability; type: cell-based; conditions: Homo sapiens, NCI-H358, 72 hr treatment
# Experimental: as §1, §2, §3
# [3] = test system: Cyclin D1; assay: Western blot analysis, cyclin D1; type: cell-based; conditions: H358 cells, 3, 6, 9 μM, 24 hr
# Experimental: (§4) The cell culture dish was placed in the ice and washed the cells with PBS. Then the PBS was removed to ensure that the cells were lysed in cell lysis buffer containing protease and phosphatase inhibitors. Adherent cells were scraped off from the plate and transferred the lysate into a new tube. The tube was maintained at a constant agitation for 15 min in the ice. Then the tubes were centrifuged at 4° C. 12000 g for 5 min. The supernatant was transferred into a new tube and 4× loading buffer was added to the supernatant. Each sample was boiled at 100° C. for 5 min. Equal amounts of protein (50 μg) were loaded into the wells of a SDS-PAGE gel, along with 3 μl markers. The gel was placed in transfer buffer in sandwich and was transferred to a nitrocellulose filter membrane. After transferring for 3 hr in an ice bucket at a constant current of 300 mA, the membranes were blocked in 5% non-fat milk in TBST at room temperature for 1 hr. The membrane was incubated overnight with the primary antibody solution, against the target protein at 4° C. The blot was rinsed 3 times within 5 min with TBST. The secondary antibody solution was incubated for 1 hr at room temperature. […]
# (§5) To determine whether the induction of apoptosis in NSCLC cells was contributed by compound C620-0696-mediated growth inhibition, cleaved PARP1 in compound C620-0696 treated H358 cells was detected. […]
# [4] = test system: A549 cells; assay: Wound healing assay; type: cell-based; conditions: 24 and 48 hours postinjury, versus control cells
# Experimental: A549 cells were seeded onto 6 well plates. When the cell confluence reached about >90% and scratch wounds were made by scraping the cell layer across each plate using the tip of 200 μl pipette. Wounded cultures were incubated in medium for 48 hr, and then visualized by Olympus inverted microscopy to assess cell migration ability.
# To evaluate the effect of C620-0696 on cell migration and cellular processes in NSCLC, the wound healing assay was employed to assess the directional cell motility in A549 cells.
# [5] = test system: PARP1; assay: Western blot analysis, cleaved PARP1; type: cell-based; conditions: H358 cells, 9 μM, 24 hr
# Experimental: as §4, §5
# [6] = test system: A549 cells; assay: Colony formation assay; type: cell-based; conditions: A549 cells, 0.5, 1, 1.5 μM, 7 days, versus control group
# Experimental: Cell survival was assessed by colony formation as previously described. A549 cells were seeded to six-well plate (500-1000/well). Then cells were exposed to various doses of compound C620-0696. After 7 days, colonies were fixed with 4% paraformaldehyde for 15 minutes and stained with crystal violet for 10-15 minutes. Finally, the staining solution was slowly washed off with water and the cells were air dried.
# To determine the effect of the compound C620-0696 on A549 cell growth behavior, a colony formation assay was performed. A549 cells were treated by different concentrations of compound C620-0696, i.e. 0 (control group), 0.5, 1, 1.5 μM.
# [7] = molecular target: bromodomain of BPTF (Homo sapiens, UniProt Q12830); assay: Kinetic binding analysis by biolayer interferometry
# Experimental: The Octet Red96 system (Forte Bio, Pall) was used to determine the binding between compound C620-0696 and BPTF. BPTF protein was loaded to saturation onto anti-His capture sensors (ForteBio), then was placed for 2 min in wells containing C620-0696 (concentrations: 3.125, 6.25, 12.5, 25, 50, 100, 200 μM). The baseline and dissociation steps were carried out in the kinetics buffer as per the instrument manufacturer's recommendations. Kinetic binding data in all cases were adequately described accurately by a 1:1 binding model.
# FIG. 2A is a graph 200 showing the binding affinity of the bromodomain of BPTF with compound C620-0696 by Biolayer interferometry assay (BLI). BLI is a label-free technology for measuring biomolecular interactions. The bromodomain was immobilized on the streptavidin (SA) biosensors, and then mixed with different concentration of compound C620-0696 at 3.125, 6.25, 12.5, 25, 50, 100, 200 μM.
# [8] = test system: c-MYC; assay: Western blot analysis, c-MYC; type: cell-based; conditions: H358 cells, 3, 6, 9 μM, 24 hr
# Experimental: as §4, §5
smiles,measurement,setting,value
CN(C)CCCNc1cc(NCc2ccco2)c2noc3c2c1C(=O)c1ccccc1-3 [compound C620-0696],IC50,[1],11.2 µM
same,IC50,[2],6.72 µM
same,expression of cyclin D1,[3],reduced the expression of cyclin D1
same,cell migration (wound healing),[4],migrated more slowly
same,levels of cleaved PARP1,[5],significantly increased
same,colony formation,[6],significant loss of colony formation
same,Koff,[7]; 1:1 binding model,1.70×10^−2 S^−1
same,Kd,"[7]; 3.125-200 μM, steady-state analysis, read-out: binding affinity KD",35.5 µM
same,expression of c-MYC,[8],suppressed the expression
